According to patent publication US20060229364A1, “Antiviral compositions and methods of use” (3M Innovative Properties Company, priority 2005, published 2006):

System: Type 1 herpes virus
Assay: Another mouse study with neat ester (Example 4), treatment from 24 hours post-virus inoculum
Assay type: in vivo, mice
Conditions: neat composition applied 24 hours post-virus inoculum, 3 times daily for 5 days
From the text: Each lesion was assigned a score ranging from 0 (normal skin) to 4 (maximal lesion intensity) defined as “Lesion score”, and two measurements, a vertical length and a horizontal length, were taken of each lesion daily from days 1 through 10. These measurements were multiplied together and the “square area” recorded, defined as “Lesion Size”. The lesion scoring was done by technicians who are unaware of which group of animals they are examining in order to eliminate bias. The occurrence of new, satellite, lesions (e.g., another lesion located anywhere other than the site of the intial lesion) were also noted during this 10-day period. The mean of the lesions score and the lesions size was calculated based on the average of the measurements taken on the eight mice.
Another mouse study was performed using propylene glycol monolaurate (Capmul PG-12) in a neat composition. The ester was applied 24 hours post-virus inoculum 3 times daily for 5 days. […] The mean day 7 lesion size was 3.1 mm2 compared to 64.4 mm2 for petrolatum vehicle control. The day 7 mean lesion score was 0.2 compared to 1.5 for a control sample containing petrolatum without an antimicrobial.

Substance: propylene glycol monolaurate
- day 7 mean lesion score: 0.2
- mean day 7 lesion size: 3.1 mm2
- reduction in lesion score and size compared to a placebo ointment (in words): statistically significant reduction
